According to patent publication US8318746B2, “Nitrogen-containing five-membered heterocyclic compound” (Takeda Pharmaceutical Company Limited, priority 2007, dated 2012):

Target: T1, GST-hLGK1 (GST added to the amino terminal of human liver GK) (Homo sapiens, UniProt P35557)
T1 construct: with a BamHI site added to immediately before the initiation codon; made in house; host or cells: Escherichia coli BL21 (Stratagene), plasmid pGEX6P-2/hLGK1
T1 sequence (P35557 1-464 isoform P35557-3): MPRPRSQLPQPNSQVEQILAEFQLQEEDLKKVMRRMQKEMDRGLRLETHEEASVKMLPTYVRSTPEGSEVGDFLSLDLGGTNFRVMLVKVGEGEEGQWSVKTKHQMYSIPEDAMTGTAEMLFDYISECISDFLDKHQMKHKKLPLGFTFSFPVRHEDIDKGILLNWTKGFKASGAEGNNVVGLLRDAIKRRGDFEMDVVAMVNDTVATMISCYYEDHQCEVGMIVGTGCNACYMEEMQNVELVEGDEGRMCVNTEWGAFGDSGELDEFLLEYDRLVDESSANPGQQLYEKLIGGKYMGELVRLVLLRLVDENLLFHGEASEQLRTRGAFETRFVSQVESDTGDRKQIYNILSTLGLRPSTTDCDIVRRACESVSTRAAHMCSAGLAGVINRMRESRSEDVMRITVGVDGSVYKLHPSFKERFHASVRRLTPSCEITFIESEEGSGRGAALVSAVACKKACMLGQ
Assay: Measurement of GK activation value
Format: biochemical
Settings: test compound final concentration 10 μmol/L; reaction rate divided by that of control group (50% DMSO without test compound); Mant-ATP substrate, D-glucose, 37° C., 60 min
Procedure: To each well of a 384-well black plate (Nalge Nunc International K.K.) was added 5 μL of 50% dimethyl sulfoxide solution containing test compound diluted to 100 μmol/L. Then, GST-hLGK1 obtained in Reference Example 2A was diluted with measurement buffer (containing 50 mM HEPES (pH 7.4), 200 mM KCl, 5 mM MgCl2, 2.5 mM DTT and 50 μM 2′-(or-3′)—O—(N-methylanthraniloyl) adenosine 5′-triphosphate (Mant-ATP) (Jena BioScience)) to 6 μg/mL and 35 μL thereof was added to each well.
Each well was stood at 37° C. for 10 min, 25 mM D-glucose solution (10 μL) was added to start the reaction. The final concentration of the test compound was 10 μmol/L.
Each, well after the reaction was stood at 37° C. for 60 min, and the reaction was quenched by adding 25 μL of a quenching solution (containing 200 mM HEPES (pH 7.4), 20 mM MgCl2, 200 mM EDTA, 0.03% Triton-X 100, 0.3% Coating 3 reagent (Caliper Life Sciences, Inc.)).
2′-(or-3′)-O-(N-methylanthraniloyl)adenosine 5′-triphosphate (Mant-ATP, substrate) and Mant-ADP (reaction resultant product) were separated from each well after the reaction by a microchip type capillary electrophoresis apparatus 250 HTS (Caliper Life Sciences, Inc.). The reaction rate [(reaction resultant product peak height)/(reaction resultant product peak height+substrate peak height)×100(%)] was calculated from the ratio of the substrate peak height and reaction resultant product peak height obtained by fluorescence detection (excitation wavelength 355 nm, measurement wavelength 460 nm) and used as the index of GK activity.
As a control group, the reaction rate was calculated in the same manner as above except that “solution in 50% dimethyl sulfoxide (without test compound)” was used instead of “solution of test compound in 50% dimethyl sulfoxide”.
The reaction rate of the well (test compound addition group) added with the test compound was divided by the reaction rate of the control group and the obtained percentage was taken as the GK activation value (Emax) of the test compound.

Row | SMILES | Emax at 10 µM [%]
1 | COC(OC)C(C)(O)c1cnc(-c2ccc(C(CC3CCOCC3)c3ccc(S(=O)(=O)C4CC4)cc3)[nH]2)s1 (centres unmarked) [Example 164, 2-[2-(5-{1-[4-(cyclopropylsulfonyl)phenyl]-2-(tetrahydro-2H-pyran-4-yl)ethyl}-1H-pyrrol-2-yl)-1,3-thiazol-5-yl]-1,1-dimethoxypropan-2-ol] | 148
2 | O=C(c1[nH]c(C(CC2CCCC2)c2ccc(S(=O)(=O)C3CC3)cc2)nc1F)C1CC1 (centres unmarked) [Example 24, (2-{2-cyclopentyl-1-[4-(cyclopropylsulfonyl)phenyl]ethyl}-4-fluoro-1H-imidazol-5-yl)(cyclopropyl)methanone] | 190
3 | CC(O)c1cnc(-c2ccc(C(CC3CCOCC3)c3ccc(S(C)(=O)=O)c(Cl)c3)[nH]2)s1 (centres unmarked) [Example 172, 1-[2-(5-{1-[3-chloro-4-(methylsulfonyl)phenyl]-2-(tetrahydro-2H-pyran-4-yl)ethyl}-1H-pyrrol-2-yl)-1,3-thiazol-5-yl]ethanol] | 148
4 | CS(=O)(=O)c1ccc(C(CC2CCCC2)c2ccc(-c3cnccn3)[nH]2)cc1 (centres unmarked) [Example 3, 2-(5-{2-cyclopentyl-1-[4-(methylsulfonyl)phenyl]ethyl}-1H-pyrrol-2-yl)pyrazine] | 180
5 | O=S(=O)(c1ccc(C(CC2CCOCC2)c2ccc(-c3ncc(C(O)CO)s3)[nH]2)cc1)C1CC1 (centres unmarked) [Example 34, 1-[2-(5-{1-[4-(cyclopropylsulfonyl)phenyl]-2-(tetrahydro-2H-pyran-4-yl)ethyl}-1H-pyrrol-2-yl)-1,3-thiazol-5-yl]ethane-1,2-diol] | 178
6 | O=S(=O)(c1ccc(C(CC2CCOCC2)c2ccc(-c3nccs3)[nH]2)cc1)C1CC1 (centres unmarked) [Example 7, 2-{5-[1-[4-(cyclopropylsulfonyl)phenyl]-2-(tetrahydro-2H-pyran-4-yl)ethyl]-1H-pyrrol-2-yl}-1,3-thiazole] | 179
7 | CC(O)c1nnc(-c2ccc(C(CC3CCOCC3)c3ccc(S(=O)(=O)C4CC4)cc3)[nH]2)s1 (centres unmarked) [Example 225, 1-[5-(5-{1-[4-(cyclopropylsulfonyl)phenyl]-2-(tetrahydro-2H-pyran-4-yl)ethyl}-1H-pyrrol-2-yl)-1,3,4-thiadiazol-2-yl]ethanol] | 141
8 | O=S(=O)(c1ccc(C(CC2CCOCC2)c2ccc(-c3nnc(CN4CC(O)C4)s3)[nH]2)cc1)C1CC1 (centres unmarked) [Example 227, 1-{[5-(5-{1-[4-(cyclopropylsulfonyl)phenyl]-2-(tetrahydro-2H-pyran-4-yl)ethyl}-1H-pyrrol-2-yl)-1,3,4-thiadiazol-2-yl]methyl}azetidin-3-ol] | 129
9 | Cn1cnc(-c2ccc(C(CC3CCCC3)c3ccc(S(C)(=O)=O)cc3)[nH]2)c1 (centres unmarked) [Example 5, 4-(5-{2-cyclopentyl-1-[4-(methylsulfonyl)phenyl]ethyl}-1H-pyrrol-2-yl)-1-methyl-1H-imidazole] | 167
10 | O=S(=O)(c1ccc(C(CC2CCOCC2)c2ccc(-c3ccc(CN4CC[S+]([O-])CC4)cn3)[nH]2)cc1)C1CC1 (centres unmarked) [Example 59, 4-{[6-(5-{1-[4-(cyclopropylsulfonyl)phenyl]-2-(tetrahydro-2H-pyran-4-yl)ethyl}-1H-pyrrol-2-yl)pyridin-3-yl]methyl}thiomorpholine 1-oxide] | 151
11 | O=S(=O)(c1ccc(C(CC2CCOCC2)c2ccc(-c3ccc(C(O)CO)cn3)[nH]2)cc1)C1CC1 (centres unmarked) [Example 42, 1-[6-(5-{1-[4-(cyclopropylsulfonyl)phenyl]-2-(tetrahydro-2H-pyran-4-yl)ethyl}-1H-pyrrol-2-yl)pyridin-3-yl]ethane-1,2-diol] | 156
12 | O=S(=O)(c1ccc(C(CC2CCOCC2)c2ccc(-c3nnc(CN4CCOCC4)s3)[nH]2)cc1)C1CC1 (centres unmarked) [Example 228, 4-{[5-(5-{1-[4-(cyclopropylsulfonyl)phenyl]-2-(tetrahydro-2H-pyran-4-yl)ethyl}-1H-pyrrol-2-yl)-1,3,4-thiadiazol-2-yl]methyl}morpholine] | 145
13 | O=S1(=O)CCN(Cc2ccc(-c3ccc(C(CC4CCOCC4)c4ccc(S(=O)(=O)C5CC5)cc4)[nH]3)nc2)CC1 (centres unmarked) [Example 63] | 154

System: not given
Assay: not given
Settings: not given

Row | SMILES | melting point [°C]
14 | O=Cc1cnc(-c2ccc(C(CC3CCOCC3)c3ccc(S(=O)(=O)C4CC4)cc3)[nH]2)s1 (centres unmarked) [Example 158, 2-(5-{1-[4-(cyclopropylsulfonyl)phenyl]-2-(tetrahydro-2H-pyran-4-yl)ethyl}-1H-pyrrol-2-yl)-1,3-thiazole-5-carbaldehyde] | 175 to 176
15 | O=C1CN(Cc2cnc(-c3ccc(C(CC4CCOCC4)c4ccc(S(=O)(=O)C5CC5)cc4)[nH]3)s2)C(=O)N1 (centres unmarked) [Example 147, 1-{[2-(5-{1-[4-(cyclopropylsulfonyl)phenyl]-2-(tetrahydro-2H-pyran-4-yl)ethyl}-1H-pyrrol-2-yl)-1,3-thiazol-5-yl]methyl}imidazolidine-2,4-dione] | 184 to 185
16 | O=C(O)c1cc(-c2nccs2)[nH]c1C(CC1CCOCC1)c1ccc(S(=O)(=O)C2CC2)cc1 (centres unmarked) [Example 104, 2-{1-[4-(cyclopropylsulfonyl)phenyl]-2-(tetrahydro-2H-pyran-4-yl)ethyl}-5-(1,3-thiazol-2-yl)-1H-pyrrole-3-carboxylic acid] | 153 to 155
17 | CC(O)c1cnc(-c2ccc(C(CC3CCOCC3)c3ccc(S(=O)(=O)C4CC4)cc3)[nH]2)s1 (centres unmarked) [Example 167, Optically Active form of 1-[2-(5-{1-[4-(cyclopropylsulfonyl)phenyl]-2-(tetrahydro-2H-pyran-4-yl)ethyl}-1H-pyrrol-2-yl)-1,3-thiazol-5-yl]ethanol] | 112 to 114
18 | CC(C)(O)CNC(=O)c1ccc(-c2ccc(C(CC3CCOCC3)c3ccc(S(=O)(=O)C4CC4)cc3)[nH]2)nc1 (centres unmarked) [Example 123, 6-(5-[1-[4-(cyclopropylsulfonyl)phenyl]-2-(tetrahydro-2H-pyran-4-yl)ethyl]-1H-pyrrol-2-yl)-N-(2-hydroxy-2-methylpropyl)pyridine-3-carboxamide] | 126 to 128
19 | O=C(c1ccc(-c2ccc(C(CC3CCOCC3)c3ccc(S(=O)(=O)C4CC4)cc3)[nH]2)nc1)N1CCC1 (centres unmarked) [Example 120] | 109 to 110
20 | O=S(=O)(c1ccc(C(CC2CCOCC2)c2ccc(-c3nnc(CO)s3)[nH]2)cc1)C1CC1 (centres unmarked) [Example 206, [5-(5-{1-[4-(cyclopropylsulfonyl)phenyl]-2-(tetrahydro-2H-pyran-4-yl)ethyl}-1H-pyrrol-2-yl)-1,3,4-thiadiazol-2-yl]methanol] | 208.5 to 208.6
21 | CCOCCNC(=O)c1ccc(-c2ccc(C(CC3CCOCC3)c3ccc(S(=O)(=O)C4CC4)cc3)[nH]2)nc1 (centres unmarked) [Example 122, 6-(5-{1-[4-(cyclopropylsulfonyl)phenyl]-2-(tetrahydro-2H-pyran-4-yl)ethyl}-1H-pyrrol-2-yl)-N-(2-ethoxyethyl)pyridine-3-carboxamide] | 87 to 90
22 | CC(=O)N1CCN(Cc2cnc(-c3ccc(C(CC4CCOCC4)c4ccc(S(=O)(=O)C5CC5)cc4)[nH]3)s2)CC1.Cl (centres unmarked) | 156 to 158
23 | O=C(O)Cc1ccc(-c2ccc(C(CC3CCOCC3)c3ccc(S(=O)(=O)C4CC4)cc3)[nH]2)nc1 (centres unmarked) [Example 129, [6-(5-{1-[4-(cyclopropylsulfonyl)phenyl]-2-(tetrahydro-2H-pyran-4-yl)ethyl}-1H-pyrrol-2-yl)pyridin-3-yl]acetic acid] | 124 to 127
